Laboratory results: US20120245137A1 (Zalicus Pharmaceuticals Ltd., priority 2009, published 2012)
Where two headings read alike, the source gives them in different places.

Legend:
[1] = test system: male CF1 mice; assay: 6 Hz psychomotor seizure model of partial epilepsy; type: in vivo; set-up: concentration or dose not given beside the values; conditions: 6 Hz 32 mA corneal stimulus
Source text: Compounds can also be evaluated for the protection against seizures induced by a 6 Hz, 0.2 ms rectangular pulse width of 3 s duration, at a stimulus intensity of 32 mA (CC97) applied to the cornea of male CF1 mice (20-30 g) according to procedures described by Barton et al, “Pharmacological Characterization of the 6 Hz Psychomotor Seizure Model of Partial Epilepsy,” Epilepsy Res. 47(3):217-27 (2001). Seizures are characterised by the expression of one or more of the following behaviours: stun, forelimb clonus, twitching of the vibrissae and Straub-tail immediately following electrical stimulation.

[2] = test system: mice; assay: Mouse rotarod assay; conditions: rod at 6 rpm
Method: In mice, the rotarod procedure (Dunham and Miya, J. Am. Pharmacol. Assoc. 46:208-209 (1957)) is used to disclose minimal muscular or neurological impairment (MMI). When a mouse is placed on a rod that rotates at a speed of 6 rpm, the animal can maintain its equilibrium for long periods of time. The animal is considered toxic if it falls off this rotating rod three times during a 1-min period.

[3] = biological target: CAv1.2 (Homo sapiens, UniProt Q13936); assay: L-type (CAv1.2) channel blocking, FLIPR data (Table 6); type: cell-based
[4] = biological target: Human Cav 2.2 channels (Homo sapiens, UniProt Q00975); assay: Fluorescent assay for CaV2.2 channels using potassium depolarization (VIPR/FLIPR); type: cell-based; conditions: FLIPR data
Summary of the method: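 HEK293 cells stably expressing human Cav2.2 with α2δ and β subunits plus Kir2.3 were loaded with fluo-4 and incubated 30 min at 25 °C with compound in 4, 12, 25 or 30 mM potassium buffer. Channels were opened with 70 mM potassium (final) and calcium influx was read by fluorescence (Ex 480/Em 535 nm).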

[5] = biological target: T-type calcium channel (Homo sapiens, UniProt O43497); assay: T-type channel blocking, FLIPR data (Table 6); type: cell-based; conditions: CAv3.1
Chain of T-type calcium channel (Homo sapiens, UniProt O43497) (O43497 whole entry): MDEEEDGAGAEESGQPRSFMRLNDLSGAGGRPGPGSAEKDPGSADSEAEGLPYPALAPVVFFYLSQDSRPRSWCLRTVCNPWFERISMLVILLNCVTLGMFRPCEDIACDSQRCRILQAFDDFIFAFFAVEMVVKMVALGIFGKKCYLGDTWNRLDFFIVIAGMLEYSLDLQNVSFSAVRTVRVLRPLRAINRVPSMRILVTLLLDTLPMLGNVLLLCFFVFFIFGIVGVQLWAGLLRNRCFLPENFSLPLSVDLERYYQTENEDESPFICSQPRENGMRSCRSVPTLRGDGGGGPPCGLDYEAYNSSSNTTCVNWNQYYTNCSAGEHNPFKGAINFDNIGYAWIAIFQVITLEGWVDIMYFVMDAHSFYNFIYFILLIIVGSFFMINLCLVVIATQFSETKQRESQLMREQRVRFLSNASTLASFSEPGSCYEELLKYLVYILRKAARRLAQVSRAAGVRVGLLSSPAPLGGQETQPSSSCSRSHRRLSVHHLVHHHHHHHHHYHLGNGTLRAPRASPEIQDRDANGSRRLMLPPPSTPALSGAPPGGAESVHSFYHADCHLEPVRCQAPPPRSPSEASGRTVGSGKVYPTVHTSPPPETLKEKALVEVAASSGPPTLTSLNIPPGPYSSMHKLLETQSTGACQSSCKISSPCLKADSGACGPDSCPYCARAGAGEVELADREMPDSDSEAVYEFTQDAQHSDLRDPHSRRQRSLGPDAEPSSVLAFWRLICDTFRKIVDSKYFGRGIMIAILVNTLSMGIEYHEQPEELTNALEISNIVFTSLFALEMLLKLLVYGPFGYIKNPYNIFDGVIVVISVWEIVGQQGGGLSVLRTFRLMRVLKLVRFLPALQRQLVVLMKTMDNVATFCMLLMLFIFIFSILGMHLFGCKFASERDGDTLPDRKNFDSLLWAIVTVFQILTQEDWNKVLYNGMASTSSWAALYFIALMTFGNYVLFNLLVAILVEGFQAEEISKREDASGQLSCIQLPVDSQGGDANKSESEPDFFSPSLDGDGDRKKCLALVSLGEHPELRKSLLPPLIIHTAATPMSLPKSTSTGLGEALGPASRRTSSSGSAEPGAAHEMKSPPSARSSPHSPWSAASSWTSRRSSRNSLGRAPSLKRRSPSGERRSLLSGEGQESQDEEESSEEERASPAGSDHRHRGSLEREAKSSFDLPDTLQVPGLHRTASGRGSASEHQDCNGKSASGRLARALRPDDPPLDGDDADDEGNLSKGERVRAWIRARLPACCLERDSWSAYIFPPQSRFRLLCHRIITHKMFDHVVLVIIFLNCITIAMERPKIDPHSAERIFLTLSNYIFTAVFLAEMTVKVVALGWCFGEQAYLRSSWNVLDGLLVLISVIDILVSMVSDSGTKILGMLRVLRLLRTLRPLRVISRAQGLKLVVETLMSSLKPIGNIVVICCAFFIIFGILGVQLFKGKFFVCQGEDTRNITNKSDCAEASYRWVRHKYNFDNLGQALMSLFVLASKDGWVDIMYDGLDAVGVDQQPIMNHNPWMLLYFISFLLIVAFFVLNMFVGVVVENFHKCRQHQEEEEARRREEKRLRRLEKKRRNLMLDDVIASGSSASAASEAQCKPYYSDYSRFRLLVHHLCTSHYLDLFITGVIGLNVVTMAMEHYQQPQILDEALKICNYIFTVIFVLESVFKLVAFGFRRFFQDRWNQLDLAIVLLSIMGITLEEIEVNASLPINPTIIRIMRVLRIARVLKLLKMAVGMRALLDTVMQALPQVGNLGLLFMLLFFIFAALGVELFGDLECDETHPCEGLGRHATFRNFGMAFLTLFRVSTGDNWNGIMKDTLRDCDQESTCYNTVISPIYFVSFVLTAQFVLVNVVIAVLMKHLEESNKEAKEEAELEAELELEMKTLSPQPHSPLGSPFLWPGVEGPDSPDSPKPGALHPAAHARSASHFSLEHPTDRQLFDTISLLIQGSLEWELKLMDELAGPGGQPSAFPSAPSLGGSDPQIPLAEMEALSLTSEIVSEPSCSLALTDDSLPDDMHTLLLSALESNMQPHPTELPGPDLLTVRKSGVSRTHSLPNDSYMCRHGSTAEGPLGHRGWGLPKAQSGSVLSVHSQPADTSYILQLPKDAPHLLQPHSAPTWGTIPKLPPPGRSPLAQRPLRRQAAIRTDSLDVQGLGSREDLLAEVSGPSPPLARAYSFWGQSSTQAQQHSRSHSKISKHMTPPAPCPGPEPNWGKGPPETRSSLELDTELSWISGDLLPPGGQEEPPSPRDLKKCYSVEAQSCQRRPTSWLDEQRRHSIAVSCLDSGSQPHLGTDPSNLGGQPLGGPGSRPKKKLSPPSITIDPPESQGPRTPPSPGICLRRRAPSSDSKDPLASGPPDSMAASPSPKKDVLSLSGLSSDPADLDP
Source text: (§1) Another method, high-throughput spectrophotometric assay, utilizes loading of the cell lines with a fluorescent dye sensitive to intracellular calcium concentration and subsequent examination of the effects of compounds on the ability of depolarization by potassium chloride or other means to alter intracellular calcium levels.

[6] = biological target: T-type calcium channel (Homo sapiens, UniProt O95180); assay: T-type channel blocking, FLIPR data (Table 6); type: cell-based; conditions: for CAv3.2 IC50 Ratio closed/inact.: CAv3.2, ratio closed/inact.
Chain of T-type calcium channel (Homo sapiens, UniProt O95180) (O95180 whole entry): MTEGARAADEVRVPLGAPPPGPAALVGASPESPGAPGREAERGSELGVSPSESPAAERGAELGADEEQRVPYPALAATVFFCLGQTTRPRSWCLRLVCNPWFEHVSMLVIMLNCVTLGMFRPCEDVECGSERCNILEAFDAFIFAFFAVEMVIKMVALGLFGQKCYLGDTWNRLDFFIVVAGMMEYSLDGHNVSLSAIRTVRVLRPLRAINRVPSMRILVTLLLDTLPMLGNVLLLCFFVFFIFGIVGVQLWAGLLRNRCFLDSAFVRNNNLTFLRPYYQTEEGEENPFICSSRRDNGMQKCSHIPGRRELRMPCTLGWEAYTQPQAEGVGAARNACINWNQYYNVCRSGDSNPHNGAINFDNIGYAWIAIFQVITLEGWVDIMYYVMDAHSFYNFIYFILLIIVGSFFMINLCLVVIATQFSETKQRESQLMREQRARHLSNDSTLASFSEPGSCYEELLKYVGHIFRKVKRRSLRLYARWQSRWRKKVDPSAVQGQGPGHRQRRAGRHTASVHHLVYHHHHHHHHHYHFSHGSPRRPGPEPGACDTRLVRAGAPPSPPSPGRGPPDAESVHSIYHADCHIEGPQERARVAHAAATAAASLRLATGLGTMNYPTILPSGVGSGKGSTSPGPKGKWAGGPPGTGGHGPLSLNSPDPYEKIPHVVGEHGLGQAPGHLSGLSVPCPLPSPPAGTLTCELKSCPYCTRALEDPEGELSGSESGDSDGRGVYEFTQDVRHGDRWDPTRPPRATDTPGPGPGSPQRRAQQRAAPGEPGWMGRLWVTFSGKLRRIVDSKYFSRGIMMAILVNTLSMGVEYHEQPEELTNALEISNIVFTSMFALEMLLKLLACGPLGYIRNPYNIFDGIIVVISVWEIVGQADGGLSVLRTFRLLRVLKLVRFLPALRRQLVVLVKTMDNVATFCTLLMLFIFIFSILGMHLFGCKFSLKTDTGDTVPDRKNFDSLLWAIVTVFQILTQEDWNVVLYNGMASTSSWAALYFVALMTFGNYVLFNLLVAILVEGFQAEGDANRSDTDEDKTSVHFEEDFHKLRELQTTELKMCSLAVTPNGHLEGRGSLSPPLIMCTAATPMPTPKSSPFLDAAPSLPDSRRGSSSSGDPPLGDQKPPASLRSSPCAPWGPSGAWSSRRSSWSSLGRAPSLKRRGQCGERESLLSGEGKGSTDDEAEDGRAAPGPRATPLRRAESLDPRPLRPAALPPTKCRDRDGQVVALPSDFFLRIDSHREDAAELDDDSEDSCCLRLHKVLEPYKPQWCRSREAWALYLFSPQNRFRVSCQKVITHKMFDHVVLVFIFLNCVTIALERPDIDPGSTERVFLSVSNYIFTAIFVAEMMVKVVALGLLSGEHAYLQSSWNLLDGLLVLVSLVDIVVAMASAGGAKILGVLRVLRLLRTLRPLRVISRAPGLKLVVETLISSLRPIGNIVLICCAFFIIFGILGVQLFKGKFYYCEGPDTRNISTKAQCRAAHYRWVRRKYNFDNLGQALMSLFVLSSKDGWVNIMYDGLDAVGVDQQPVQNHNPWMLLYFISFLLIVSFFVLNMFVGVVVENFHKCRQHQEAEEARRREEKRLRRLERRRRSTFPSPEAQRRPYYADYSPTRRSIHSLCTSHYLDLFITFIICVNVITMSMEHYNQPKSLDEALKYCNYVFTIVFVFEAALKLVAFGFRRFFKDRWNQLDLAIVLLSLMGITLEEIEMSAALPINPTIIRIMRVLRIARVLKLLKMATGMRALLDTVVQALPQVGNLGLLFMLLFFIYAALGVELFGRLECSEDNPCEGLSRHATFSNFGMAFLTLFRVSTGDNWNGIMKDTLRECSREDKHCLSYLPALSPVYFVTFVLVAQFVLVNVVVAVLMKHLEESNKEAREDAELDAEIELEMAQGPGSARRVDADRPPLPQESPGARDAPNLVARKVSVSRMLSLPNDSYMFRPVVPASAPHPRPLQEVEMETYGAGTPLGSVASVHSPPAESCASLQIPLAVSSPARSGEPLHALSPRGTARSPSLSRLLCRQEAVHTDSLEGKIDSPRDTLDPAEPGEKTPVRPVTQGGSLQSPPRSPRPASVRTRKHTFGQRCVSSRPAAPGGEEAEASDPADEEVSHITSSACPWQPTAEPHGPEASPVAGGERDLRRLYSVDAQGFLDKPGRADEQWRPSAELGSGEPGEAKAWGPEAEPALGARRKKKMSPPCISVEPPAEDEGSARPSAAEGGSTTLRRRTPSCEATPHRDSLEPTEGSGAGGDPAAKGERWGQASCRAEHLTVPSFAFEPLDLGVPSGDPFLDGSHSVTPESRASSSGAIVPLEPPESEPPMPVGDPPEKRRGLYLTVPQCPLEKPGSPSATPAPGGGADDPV
Source text: as §1

[7] = closed state, read-out: CAv1.2 IC50 Closed
[8] = inactivated state, read-out: CAv1.2 IC50 Inact.
[9] = closed state, read-out: CAv2.2 IC50 Closed
[10] = inactivated state, read-out: CAv2.2 IC50 Inact.
[11] = CAv3.2, closed state, read-out: CAv3.2 IC50 Closed
[12] = CAv3.2, inactivated state, read-out: CAv3.2 IC50 Inact.

| Structure (SMILES) | Epilepsy 6 Hz (% protected) 0.25 hr [1] [%] | Epilepsy 6 Hz (% protected) 0.5 hr [1] [%] | Epilepsy 6 Hz (% protected) 1 hr [1] [%] | Epilepsy 6 Hz (% protected) 2 hr [1] [%] | Epilepsy 6 Hz (% protected) 4 hr [1] [%] | EPILEPSY ROTAROD (% IMPAIRED) 0.25 hr [2] [%] | EPILEPSY ROTAROD (% IMPAIRED) 0.5 hr [2] [%] | EPILEPSY ROTAROD (% IMPAIRED) 1 hr [2] [%] | EPILEPSY ROTAROD (% IMPAIRED) 2 hr [2] [%] | EPILEPSY ROTAROD (% IMPAIRED) 4 hr [2] [%] | IC50 [3, 7] [µM] | IC50 [3, 8] [µM] | CAv1.2 IC50 Ratio closed/inact. [3] | IC50 [4, 9] [µM] | IC50 [4, 10] [µM] | CAv2.2 IC50 Ratio closed/inact. [4] | IC50 [5] [µM] | IC50 [6, 11] [µM] | IC50 [6, 12] [µM] | CAv3.2 IC50 Ratio closed/inact. [6] |
| --- | --- | --- | --- | --- | --- | --- | --- | --- | --- | --- | --- | --- | --- | --- | --- | --- | --- | --- | --- | --- |
| CC(C)([C@H]1C[C@@H](NC(=O)c2cc(C(F)(F)F)n[nH]2)C1)S(=O)(=O)c1cccc(C(F)(F)F)c1 [Compound 543] | 0 | 0 | 0 | 0 | 0 | 0 | 0 | 0 | 0 | 0 | – | – | – | – | – | – | – | – | – | – |
| CC(C)([C@H]1C[C@@H](NC(=O)c2ccc(C(F)(F)F)cc2S(C)(=O)=O)C1)S(=O)(=O)c1cccc(C(F)(F)F)c1 [Compound 542] | 0 | 0 | 0 | 0 | 0 | 0 | 0 | 0 | 0 | 0 | – | – | – | – | – | – | – | – | – | – |
| CC(C)([C@H]1C[C@@H](NC(=O)c2cc(C(F)(F)F)ccn2)C1)S(=O)(=O)c1cccc(C(F)(F)F)c1 [Compound 551] | 25 | 0 | 0 | 0 | 0 | 0 | 0 | 0 | 0 | 0 | – | – | – | – | – | – | – | – | – | – |
| CC(C)(C[C@H]1C[C@@H](NC(=O)[C@H]2CCCC[C@@H]2N)C1)S(=O)(=O)c1cccc(C(F)(F)F)c1 [Compound 745] | – | – | – | – | – | – | – | – | – | – | 8.68 | ≥ 10 | 0.9 | 4.22 | 1.21 | 3.5 | ≥ 10 | ≥ 10 | 10 | 1 |
| CC(C)([C@H]1C[C@H](CNc2cc(C(F)(F)F)n[nH]2)C1)S(=O)(=O)c1cccc(C(F)(F)F)c1 [Compound 752] | – | – | – | – | – | – | – | – | – | – | 8.6 | 2.81 | 3.1 | 3.7 | 0.28 | 13.2 | 4.91 | 5.86 | 1.88 | 3.1 |
| CC(C)([C@H]1C[C@@H](C(=O)Nc2ccc(C(F)(F)F)cn2)C1)S(=O)(=O)c1cccc(C(F)(F)F)c1 [Compound 758] | – | – | – | – | – | – | – | – | – | – | 3.56 | 1.88 | 1.9 | 2.54 | 0.39 | 6.5 | 2.13 | 4.06 | 1.97 | 2.1 |
| CC(C)([C@H]1C[C@@H](CNc2cc(C(F)(F)F)n[nH]2)C1)S(=O)(=O)c1cccc(C(F)(F)F)c1 [Compound 755] | – | – | – | – | – | – | – | – | – | – | 8.17 | 3.88 | 2.1 | 4.48 | 0.75 | 6 | 5.25 | ≥ 10 | 2.49 | 4 |
| CC(C)(C[C@H]1C[C@@H](NC(=O)[C@@H]2CCCC[C@H]2N)C1)S(=O)(=O)c1cccc(C(F)(F)F)c1 [Compound 741] | – | – | – | – | – | – | – | – | – | – | ≥ 10 | ≥ 10 | – | 3.86 | 1.31 | 2.9 | ≥ 10 | ≥ 10 | 10 | 1 |
| CC(C)([C@H]1C[C@H](C(=O)Nc2ccc(Cl)cn2)C1)S(=O)(=O)c1cccc(C(F)(F)F)c1 [Compound 761] | – | – | – | – | – | – | – | – | – | – | 8.54 | 4.61 | 1.9 | 1.6 | 0.15 | 10.7 | 4.19 | ≥ 10 | 1.71 | 5.8 |
| CC(C)([C@H]1C[C@H](C(=O)Nc2cc(C(F)(F)F)n[nH]2)C1)S(=O)(=O)c1cccc(C(F)(F)F)c1 [Compound 762] | – | – | – | – | – | – | – | – | – | – | ≥ 10 | 7.23 | 1.4 | 6.26 | 0.39 | 16.1 | 2.63 | ≥ 10 | 1.84 | 5.4 |
| CC(C)([C@H]1C[C@@H](CNc2ccc(F)c(Cl)c2)C1)S(=O)(=O)c1cccc(C(F)(F)F)c1 [Compound 753] | – | – | – | – | – | – | – | – | – | – | 7.42 | 1.51 | 4.9 | 3.8 | 0.33 | 11.5 | 4.45 | ≥ 10 | 1.63 | 6.1 |
| CC(C)(C[C@H]1C[C@@H](NC(=O)[C@H]2CCCC[C@H]2N)C1)S(=O)(=O)c1cccc(C(F)(F)F)c1 [Compound 744] | – | – | – | – | – | – | – | – | – | – | ≥ 10 | ≥ 10 | – | 4.11 | 0.94 | 4.4 | ≥ 10 | ≥ 10 | – | – |
| Cn1nc(C(F)(F)F)cc1NC(=O)[C@H]1C[C@H](C(C)(C)S(=O)(=O)c2cccc(C(F)(F)F)c2)C1 [Compound 769] | – | – | – | – | – | – | – | – | – | – | 8.49 | 1.47 | 5.8 | 4.98 | 0.34 | 14.6 | 4.72 | 5.36 | 3.78 | 1.4 |
